# Measured values reported in US6518265B1, “1H-imidazopyridine derivatives” (Hokuriku Seiyaku Co., Ltd., priority 1998, dated 2003).
# Counter-ions that a name gives are not always drawn.
row,Compound,melting point
1,CCOC(=O)N1CCC(CCn2cnc3c(Oc4ccccc4)nc4ccccc4c32)CC1 [Example 198],132 to 133 °C
2,CC(C)(C)OC(=O)N1CCC(CCn2c(-c3ccccc3)nc3c(Cl)nc4c(c32)CCCC4)CC1 [Example 33],215 to 218 °C (dec.)
3,Clc1nc2c(c3c1nc(-c1ccccc1)n3CCC1CCNCC1)CCCC2 (as salt: trifluoroacetate) [Example 135],215 to 221 °C (dec.)
4,CC(C)(C)OC(=O)N1CCC(CCn2c(-c3ccccc3)nc3c(Cl)nc4ccsc4c32)CC1 [Example 35],199 to 200 °C
5,"CNC(=S)N1CCC(CCn2c(-c3ccccc3)nc3c(Cl)nc4ccccc4c32)CC1 [Example 201, 4-[2-(4-Chloro-2-phenyl-1H-imidazo[4,5-c]quinolin-1-yl)ethyl]-N-methyl-1-piperidinecarbothioamide]",215 to 220 °C (dec.)
6,Clc1nc2ccccc2c2c1nc(-c1ccccc1)n2CC[C@@H]1CCCN1 (as salt: fumarate) (hydrate or solvate) [Example 134],261 to 272 °C (dec.)
7,Clc1nc2c(c3c1nc(-c1ccccc1)n3CCC1CCNCC1)CCC2 (as salt: trifluoroacetate) [Example 136],225 to 232 °C (dec.)
8,Cc1ccc(S(=O)(=O)N2CCC(CCn3cnc4c(Oc5ccccc5)nc5ccccc5c43)CC2)cc1 [Example 197],201.5 to 202 °C
9,Clc1nc2ccsc2c2c1nc(-c1ccccc1)n2CCC1CCNCC1 (as salt: trifluoroacetate) (hydrate or solvate) [Example 137],224 to 224.5 °C
10,CNc1nc2ccccc2c2c1nc(-c1ccccc1)n2CCC1CCN(C(=O)OC(C)(C)C)CC1 (hydrate or solvate) [Example 95],161 to 162 °C
